{
  "source": "patent US8901035B2",
  "about": "“Herbicidal compositions comprising 4-amino-3-chloro-5-fluoro-6-(4-chloro-2-fluoro-3-methoxyphenyl) pyridine-2-carboxylic acid or a derivative thereof and cellulose biosynthesis inhibitor herbicides” (Dow AgroSciences LLC, priority 2012, dated 2014)",
  "key": {"[1]": {"system": "Setaria faberi Herrm. (SETFA)", "test": "Pre-emergence soil-applied herbicidal mixtures for weed control (greenhouse)", "format": "in vivo"}, "[2]": {"system": "Ipomoea hederacea (L.) Jacq. (IPOHE)", "test": "Pre-emergence soil-applied herbicidal mixtures for weed control (greenhouse)", "format": "in vivo"}, "[3]": {"conditions": "Compound A Benzyl Ester 16 g ae/ha alone"}, "[4]": {"conditions": "Compound A Benzyl Ester 32 g ae/ha alone"}},
  "data": [
    {"smiles": "COc1c(Cl)ccc(-c2nc(C(=O)OCc3ccccc3)c(Cl)c(N)c2F)c1F", "note": "[Compound A Benzyl Ester, benzyl ester of 4-amino-3-chloro-5-fluoro-6-(4-chloro-2-fluoro-3-methoxy-phenyl)pyridine-2-carboxylic acid]", "values": [
      {"measurement": "Visual Weed Control (%) - 27 DAA SETFA Obs", "setting": "[1]; [3]", "result": 8, "unit": "%"},
      {"measurement": "Visual Weed Control (%) - 27 DAA SETFA Obs", "setting": "[1]; [4]", "result": 15, "unit": "%"},
      {"measurement": "Visual Weed Control (%) - 28 DAA IPOHE Obs", "setting": "[2]; [3]", "result": 13, "unit": "%"},
      {"measurement": "Visual Weed Control (%) - 28 DAA IPOHE Obs", "setting": "[2]; [4]", "result": 23, "unit": "%"}
    ]}
  ]
}
